Like-named read-outs stand apart in the source and are kept apart here. Non-standard residues stand in square brackets, D forms with d. Residues, ends and D or L forms follow the SMILES beside them. Cit = NC(=O)NCCC[C@H](N)C(=O)O
Target: T1, DR0401 protein (Homo sapiens, UniProt P01903+P01911, A100K/A169T/F76Y/I96L/K127E/L162R/M171V/N62H/P40V/Q125Y/R42H/S133A/S149N/S66Y/V115G/V209L/W38E)
T1 construct: made in house; host or cells: insect cell cultures
Assay: DR0401 peptide binding competition assay

[1] = Supplementary Table 2, competition with biotin-HA306-318 0.02 μM, read-out: IC50 (Binding of Predicted Glucokinase Peptides to DR04:01)
[2] = Supplementary Table 3, competition with biotin-HA306-318 0.02 μM, representative values from two replicate experiments, read-out: IC50 (Effect of Citrulline or Arg Substitution)

Compound	IC50 [1]	other results
CC[C@H](C)[C@H](NC(=O)[C@H](CS)NC(=O)[C@H](CCC(=O)O)NC(=O)[C@H](CO)NC(=O)[C@@H](NC(=O)[C@H](Cc1ccc(O)cc1)NC(=O)[C@H](CC(=O)O)NC(=O)[C@H](Cc1ccccc1)NC(=O)[C@H](CC(C)C)NC(=O)[C@H](CCSC)NC(=O)[C@@H](N)CCC(=O)O)[C@@H](C)CC)C(=O)N[C@@H](CO)C(=O)N[C@@H](CC(=O)O)C(=O)N[C@@H](Cc1ccccc1)C(=O)N[C@@H](CC(C)C)C(=O)O [GK 120-134] (H-EMLFDYISECISDFL-OH)	40.1 µM	–
CC(C)C[C@H](NC(=O)[C@H](CCCNC(=N)N)NC(=O)[C@H](CC(=O)O)NC(=O)[C@H](Cc1ccc(O)cc1)NC(=O)[C@H](CCC(=O)O)NC(=O)[C@H](CC(C)C)NC(=O)[C@@H](N)CC(C)C)C(=O)N[C@H](C(=O)N[C@@H](CC(=O)O)C(=O)N[C@@H](CCC(=O)O)C(=O)N[C@@H](CO)C(=O)N[C@@H](CO)C(=O)N[C@@H](C)C(=O)N[C@@H](CC(N)=O)C(=O)N1CCC[C@H]1C(=O)O)C(C)C [GK 270] (H-LLEYDRLVDESSANP-OH)	–	IC50 (Table 1, competition with biotinylated HA306-318 reference peptide at 0.02 μM in DR0401-coated wells, europium-streptavidin time resolved fluorescence, concentration that displaces half of the reference peptide, read-out: IC50 (binding to DR0401)): 2 µM
CC(C)[C@H](NC(=O)[C@H](CCC(N)=O)NC(=O)[C@H](CO)NC(=O)[C@@H](NC(=O)[C@H](Cc1ccccc1)NC(=O)[C@H](CCCNC(N)=O)NC(=O)[C@@H](NC(=O)[C@H](CCC(=O)O)NC(=O)[C@H](Cc1ccccc1)NC(=O)[C@H](C)NC(=O)CNC(=O)[C@@H](N)CCCNC(=N)N)[C@@H](C)O)C(C)C)C(=O)N[C@@H](CCC(=O)O)C(=O)N[C@@H](CO)C(=O)N[C@@H](CC(=O)O)C(=O)O [GK 327-341] (H-RGAFET[Cit]FVSQVESD-OH; N-terminus and C-terminus assumed)	> 50 µM	–
CC(C)C[C@H](NC(=O)[C@H](CCCNC(N)=O)NC(=O)[C@H](CCCNC(=N)N)NC(=O)[C@@H](NC(=O)[C@H](CO)NC(=O)[C@H](C)NC(=O)[C@H](Cc1c[nH]cn1)NC(=O)[C@H](Cc1ccccc1)NC(=O)[C@H](CCCNC(N)=O)NC(=O)[C@H](CCC(=O)O)NC(=O)[C@H](CCCCN)NC(=O)[C@H](Cc1ccccc1)NC(=O)[C@H](CO)NC(=O)[C@@H]1CCCN1C(=O)[C@@H](N)Cc1c[nH]cn1)C(C)C)C(=O)O [GK 416-439] (H-HPSFKE[Cit]FHASVR[Cit]L-OH; N-terminus and C-terminus assumed)	> 50 µM	–
CC(C)C[C@H](NC(=O)[C@H](CCC(N)=O)NC(=O)[C@H](CCC(=O)O)NC(=O)[C@H](CO)NC(=O)[C@H](C)NC(=O)[C@H](CCC(=O)O)NC(=O)CNC(=O)[C@H](Cc1c[nH]cn1)NC(=O)[C@H](Cc1ccccc1)NC(=O)[C@H](CC(C)C)NC(=O)[C@H](CC(C)C)NC(=O)[C@@H](N)CC(N)=O)C(=O)N[C@@H](CCCNC(N)=O)C(=O)N[C@H](C(=O)N[C@@H](CCCNC(=N)N)C(=O)O)[C@@H](C)O [GK 313-327] (H-NLLFHGEASEQL[Cit]TR-OH; N-terminus and C-terminus assumed)	> 50 µM	–
CSCC[C@H](NC(=O)[C@H](Cc1ccc(O)cc1)NC(=O)[C@H](CS)NC(=O)[C@H](C)NC(=O)[C@@H](N)CC(N)=O)C(=O)N[C@@H](CCC(=O)O)C(=O)N[C@@H](CCC(=O)O)C(=O)N[C@@H](CCSC)C(=O)N[C@@H](CCC(N)=O)C(=O)N[C@@H](CC(N)=O)C(=O)N[C@H](C(=O)N[C@@H](CCC(=O)O)C(=O)N[C@@H](CC(C)C)C(=O)N[C@H](C(=O)N[C@@H](CCC(=O)O)C(=O)O)C(C)C)C(C)C [GK 231-245] (H-NACYMEEMQNVELVE-OH)	0.03 µM	–
CC(C)C[C@H](NC(=O)[C@H](CC(C)C)NC(=O)[C@H](Cc1ccccc1)NC(=O)[C@H](CCC(=O)O)NC(=O)[C@H](CC(=O)O)NC(=O)[C@@H](N)CC(C)C)C(=O)N[C@@H](CCC(=O)O)C(=O)N[C@@H](Cc1ccc(O)cc1)C(=O)N[C@@H](CC(=O)O)C(=O)N[C@@H](CCCNC(N)=O)C(=O)N[C@@H](CC(C)C)C(=O)N[C@H](C(=O)N[C@@H](CC(=O)O)C(=O)N[C@@H](CCC(=O)O)C(=O)N[C@@H](CO)C(=O)O)C(C)C [GK 266 Cit] (H-LDEFLLEYD[Cit]LVDES-OH)	–	IC50 [2]: 9.5 µM
CC[C@H](C)[C@H](NC(=O)[C@H](CC(N)=O)NC(=O)[C@H](Cc1ccc(O)cc1)NC(=O)[C@@H](NC(=O)[C@H](CCC(N)=O)NC(=O)[C@@H](N)CCCCN)[C@@H](C)CC)C(=O)N[C@@H](CC(C)C)C(=O)N[C@@H](CO)C(=O)N[C@H](C(=O)N[C@@H](CC(C)C)C(=O)NCC(=O)N[C@@H](CC(C)C)C(=O)N[C@@H](CCCNC(=N)N)C(=O)N1CCC[C@H]1C(=O)N[C@@H](CO)C(=O)O)[C@@H](C)O [GK 346 WT] (H-KQIYNILSTLGLRPS-OH)	–	IC50 [2]: 0.47 µM
CC(C)C[C@H](N)C(=O)N1CCC[C@H]1C(=O)N[C@H](C(=O)N[C@@H](Cc1ccc(O)cc1)C(=O)N[C@H](C(=O)N[C@@H](CCCNC(N)=O)C(=O)N[C@@H](CO)C(=O)N[C@H](C(=O)N1CCC[C@H]1C(=O)N[C@@H](CCC(=O)O)C(=O)NCC(=O)N[C@@H](CO)C(=O)N[C@@H](CCC(=O)O)C(=O)N[C@H](C(=O)NCC(=O)O)C(C)C)[C@@H](C)O)C(C)C)[C@@H](C)O [GK 58-72] (H-LPTYV[Cit]STPEGSEVG-OH)	30.9 µM	–

Continued, in another order:

IC50 [1]	Compound	other results
> 50 µM	CSCC[C@H](NC(=O)[C@H](CCCCN)NC(=O)[C@@H](NC(=O)[C@@H](N)CO)C(C)C)C(=O)N[C@@H](CC(C)C)C(=O)N1CCC[C@H]1C(=O)N[C@H](C(=O)N[C@@H](Cc1ccc(O)cc1)C(=O)N[C@H](C(=O)N[C@@H](CCCNC(N)=O)C(=O)N[C@@H](CO)C(=O)N[C@H](C(=O)N1CCC[C@H]1C(=O)N[C@@H](CCC(=O)O)C(=O)NCC(=O)O)[C@@H](C)O)C(C)C)[C@@H](C)O [GK 54-68] (H-SVKMLPTYV[Cit]STPEG-OH; N-terminus and C-terminus assumed)	–
> 50 µM	CC[C@H](C)[C@H](NC(=O)[C@H](CCCNC(N)=O)NC(=O)[C@H](CCSC)NC(=O)[C@@H](NC(=O)[C@H](CC(=O)O)NC(=O)[C@H](CCC(=O)O)NC(=O)[C@@H](N)CO)C(C)C)C(=O)N[C@H](C(=O)N[C@H](C(=O)NCC(=O)N[C@H](C(=O)N[C@@H](CC(=O)O)C(=O)NCC(=O)N[C@@H](CO)C(=O)N[C@H](C(=O)O)C(C)C)C(C)C)C(C)C)[C@@H](C)O [GK 398-412] (H-SEDVM[Cit]ITVGVDGSV-OH; N-terminus and C-terminus assumed)	–
> 50 µM	CC[C@H](C)[C@H](NC(=O)[C@H](CC(=O)O)NC(=O)[C@H](CS)NC(=O)[C@H](CC(=O)O)NC(=O)[C@@H](NC(=O)[C@@H](NC(=O)[C@H](CO)NC(=O)[C@@H]1CCCN1C(=O)[C@H](CCCNC(N)=O)NC(=O)[C@H](CC(C)C)NC(=O)CNC(=O)[C@H](CC(C)C)NC(=O)[C@@H](NC(=O)[C@H](CO)NC(=O)[C@@H](N)CC(C)C)[C@@H](C)O)[C@@H](C)O)[C@@H](C)O)C(=O)O [GK 352-366] (H-LSTLGL[Cit]PSTTDCDI-OH; N-terminus and C-terminus assumed)	–
15.3 µM	CSCC[C@H](NC(=O)[C@@H](NC(=O)[C@H](CCCNC(=N)N)NC(=O)[C@H](Cc1ccccc1)NC(=O)[C@H](CC(N)=O)NC(=O)[C@@H](NC(=O)CN)[C@@H](C)O)C(C)C)C(=O)N[C@@H](CC(C)C)C(=O)N[C@H](C(=O)N[C@@H](CCCCN)C(=O)N[C@H](C(=O)NCC(=O)N[C@@H](CCC(=O)O)C(=O)NCC(=O)N[C@@H](CCC(=O)O)C(=O)O)C(C)C)C(C)C [GK 81-95] (H-GTNFRVMLVKVGEGE-OH)	–
> 50 µM	CC(C)[C@H](NC(=O)[C@H](CCC(N)=O)NC(=O)[C@H](CO)NC(=O)[C@@H](NC(=O)[C@H](Cc1ccccc1)NC(=O)[C@H](CCCNC(N)=O)NC(=O)[C@@H](NC(=O)[C@@H](N)CCC(=O)O)[C@@H](C)O)C(C)C)C(=O)N[C@@H](CCC(=O)O)C(=O)N[C@@H](CO)C(=O)N[C@@H](CC(=O)O)C(=O)N[C@H](C(=O)NCC(=O)N[C@@H](CC(=O)O)C(=O)O)[C@@H](C)O [GK 331-344] (H-ET[Cit]FVSQVESDTGD-OH; N-terminus and C-terminus assumed)	–
